Reference: BindingDB's records for doi:10.1021/jm0003945 (Vrije Universiteit, 2001)

Target: T1, Adenosine receptor A2b (Homo sapiens, UniProt P29275)
T1 sequence (P29275 whole entry): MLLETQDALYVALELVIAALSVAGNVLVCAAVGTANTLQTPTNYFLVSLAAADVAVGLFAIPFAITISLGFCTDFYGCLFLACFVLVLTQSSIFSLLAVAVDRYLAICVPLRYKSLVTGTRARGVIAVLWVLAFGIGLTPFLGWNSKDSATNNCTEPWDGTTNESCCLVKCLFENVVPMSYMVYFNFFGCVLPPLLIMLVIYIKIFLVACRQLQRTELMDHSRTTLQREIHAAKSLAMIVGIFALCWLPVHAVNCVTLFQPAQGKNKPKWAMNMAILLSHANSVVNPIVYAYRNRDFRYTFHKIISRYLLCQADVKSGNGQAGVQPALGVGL
Assay: Percent displacement of [3H]DPCPX binding in human adenosine A2B receptor expressed in COS-7 cells

Question: Which Ki does the source give for `COc1ccccc1NC(=O)Nc1nc(-c2cccnc2)nc2ccccc12` [VUF-5574] here?
Answer: The Ki was 10 µM.
